Assay results reported in patent publication EP2229935A1, “Peptide derivatives or pharmaceutically acceptable salts thereof, method for producing the same, use of said derivatives and pharmaceutical composition” (Nebolsin, Vladimir Evgenievich, priority 1997, dated 1999).
Marks after values point to notes of the source that are not given here.

Assays:
[1] = test system: peripheral blood neutrophils; experiment: Activity of peripheral blood neutrophils in mice with LLC; assay type: in vivo, C57BL/6 female mice; conditions: compound III 500.0 µg/kg for 10 days
Experimental: Experiments were carried out on C57BL/6 female mice with intramuscularly transplanted LLC carcinoma. Activity of neutrophils was measured by days 11 and 14.
• control - animals with LLC tumor, 10 animals; • animals with LLC tumor + compound III at a dose 500.0 µg/kg for 10 days. 8 animals; • animals with LLC tumor + Cyclophosphane 5 times at a dose 20.0 mg/kg (in 48 hours) for 10 days, 8 animals; • compound III and Cyclophosphane according to the above dosage regimen, 8 animals.
Experiment duration was 14 days.

mongrel guinea-pigs [2] = experiment: Food anaphylaxis (active anaphylactic shock) in OVA-sensitized guinea pigs; conditions: oral 3 days before provoking anaphylaxis, 50 µg/kg
mongrel male mice = experiment: Delayed hypersensitivity induced by picryl chloride (TCB), local ointment; assay type: in vivo
Experimental: Effect study of the compounds on the delayed type hypersensitivity reaction induced in mice by 2.4.6-trichlorobenzol (TCB) was carried out according to the method of Tarayre et al. [Tarayre J.P., Barbara M., Aliaga M., Tisne-Versilles. Comparative actions of immunosuppressants, glucocorticoids and non-steroidal antiinflammatory drugs on various models of delayed hypersensitivity and on a non-immune inflammation in mice. Arzneim.-Forsch. Drug Res. (1990), Vol. 40, pip.1125-1131].
Studies were conducted on mongrel male mice with initial body mass 30-35 g. Each group included 10 animals. Mice were sensitized with 0.1 ml 3% TCB solution in acetone application on a shaved abdominal area. In 7 days, the anaphylaxis-provoking TCB dose (0.025 ml of 3% solution) was applied on both surfaces of the right ear. In 30 minutes 0.05 ml of the test ointment were rubbed into the same surfaces. 24 hours after edema induction, mice were sacrified, ears were cut off and weighed. Allergic reaction intensity was assessed by change in weight in grams of the right ear (the test one) in relation to the left ear (the control ear).
Allergic reaction inhibition expressed in percent was calculated according to the formula: 100-[(R-L(exper.))/(L):(R-L(control))/(L)x100](%) [formula] where R - the right ear weight, L - the left ear weight.
The test compounds were applied on the ear in the form of 1% and 5% ointment the base of which were 10% methylcellulose solution and propylene glycol at 1:1 ratio.
Groups of animals: • Group 1 - control, ointment base without active substance was applied on the ear of animals. • Group 2 - ointment base comprising 1% compound III was applied on the ear of animals. • Group 3 - ointment base comprising 1% compound XVII was applied on the ear of animals. • Group 4 - ointment base comprising 5% compound XLVIII was applied on the ear of animals.

mongrel mice = experiment: Acute hypobaric hypoxia model (AHBH); assay type: in vivo; conditions: oral 4 days; for Effect in percent: lifetime relative to control; for Lifetime under hypoxic conditions (minutes): mice, 170-185 mm Hg
Experimental: The tests of determining average lifetime of animals in a closed volume and on the model of acute hypobaric hypoxia at the minimum atmospheric rarefaction (170-185 mm Hg) were used to study antihypoxic activity of the compunds of general formula (I).
Simulation of AHBH was done in a flow-through chamber at temperature 22°C. Experiments were carried out on mongrel mice with initial body mass 20 g at the minimum rarefaction 170-185 mm Hg, that corresponds to the altitude of 10500-11000 m. Lift rate was 35 m/second. Each group included 15 animals. Compounds were administered orally, lift on to altitude was performed 2 hours after the last administration.
Groups of animals: • Group 1 - intact control -administration of normal saline four times. • Groups 2 and 3 - administration of the compound III at doses 50 and 500 µg/kg for 4 days. • Group 4 - single administration of sodium oxybutyrate at a dose […].

[3] = test system: Lewis pulmonary carcinoma (LLC); experiment: Lewis pulmonary carcinoma growth; assay type: in vivo; conditions: mice with LLC, day 12
Experimental: Experiments were carried out on male mice with initial body mass 18-20 g. Each group included 10 animals. […] Administration of compounds II, III, IX, X, XII, XIV, XV, XVI, XVII, XIX, XXII, XLVII in drinking water was commenced 24 hours following transplantation and continued till the end of experiment. Effect of the compounds on Lewis rat pulmonary carcinoma (LLC) was estimated by day 12 of experiment by change in tumor volume expressed in mm^3.

mongrel guinea-pigs [4] = conditions: po, 0.05 mg/kg
mongrel male rats = experiment: Hypolipidemic activity: experimental hyperlipidemia (atherogenic load); conditions: atherogenic diet, oral last four days, 50 µg/kg;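 note: serum drawn 18 h after the final dose from rats deprived of food over that interval, groups of 10 animals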
Experimental: Hypolipidemic activity of the compounds of general formula (I) was studied on the model of experimental hyperlipidemia [Arichi H., Kumura H.O. Effects of stibens compounds of roots of polygonum cuspidatium on the lipid metabolism. […] Each group of animals included 10 rats. […] Blood samples were taken for analysis 18 hours after the last administration of the test substances during which period food was taken away from rats.
The following parameters were determined: total cholesterol (total CS); high density lipoprotein cholesterol (HDL-CS); low density lipoprotein cholesterol and very low density lipoprotein cholesterol (LDL-CS and VLDL-CS); triglycerides (TG). Blood serum CS level was determined according to the Ilk method [Biochemical examination in the clinic. […] HDL-CS level was measured in supernatant following heparine-manganese precipitation of LDL+VLDL [Titov V.N., Brener E.D., Khaltaiev N.G., Zadoya A.A., Tvorogova M.G. A method and diagnostic significance of cholesterol level study in α-lipoproteins. […] LDL-CS level determination was carried out by calculation according to the formula presented in the work Friedwald W.T. [Friedwald W.T., Levy K.J., Leus R. Fat transport in lipoproteins: an integrated approach to mechanism and disorders.
To assess the effect of the test compounds on the ratio of atherogenic and antiatherogenic blood serum lipoproteins, cholesterol index (Kcs) was calculated according to the formula presented in the work [Klimov A.N., Nikulcheva N.G. Lipoproteins, dylipoproteinemias and atherosclerosis.
Blood serum TG level was determined using the conventional method [Friedwald W.T., Levy R.I., Fredrickson D.S. Estimation of concentration of low-density lipoprotein cholesterol in plasma, without use of preparative ultracentrifuge.

Human lymphocytes = experiment: PHA-induced blasttransformation of lymphocytes; assay type: cell-based
Experimental: Human lymphocytes were used for blasttransformation reaction [Kiseleva E.P., Tsveibakh A.S., Goldman E.I., Pigareva N.V. Application of a micromethod to study blasttransformation of lymphocytes in humans and animals. Immunology (1985), No 1, pp. 76-78]. 10 ml blood were collected into a sterile syringe containing heparine (to final concentration 25 U/ml) and incubated to sediment red blood cells (60-90 minutes at 37°C). Leukocytic suspension layer was selected and the number of nucleated cells was calculated. The cells obtained in such a way were incubated for 72 hours in a humid atmosphere with 5% CO2 at 37°C in the cells of plates for immune reactions in RPMI-1640 medium comprising 15% fetal calf serum, […] Neomycine (incubation mixture volume 0.15 ml). 5 x 10^5 cells were introduced into each plate cell. Incubation was carried out in the presence or absence of mitogen phytohemagglutinin (PHA) (Sigma) […] or concanavalin A (ConA) (Sigma) […] with or without addition of the test compounds at different concentrations. […] H^3 -thymidine in RPMI-1640 medium were introduced into each cell 16 hours before incubation termination. Following culturing period termination, 0.15 ml cellular suspension from each plate cell were transferred on the FN-8 paper filters. Filters were dried, washed two times with normal saline for 5 minutes then twice with TCA for 60 minutes. After drying, radioactivity of samples was calculated on a counter in the ZhS-8 scintillator. Stimulation index was calculated as ratio of sample radioactivity with mitogen to sample radioactivity without mitogen.

O=C(O)CCCC(=O)NCCc1c[nH]cn1 [compound III, N-GLUTARYLHISTAMINE]
Percent of active neutrophils ([1]; Background): 20.1 ± 2.7%
Percent of active neutrophils ([1]; day 11): 9.3 ± 1.7%
Percent of active neutrophils ([1]; day 14): 15.3 ± 4.3%
Lethality in percent (mongrel guinea-pigs [2]): 6.7** percent
Weight of years (g) left (mongrel male mice): 15.4 ± 1.12 g
Reaction inhibition (%) (mongrel male mice; mice, TCB, 1% ointment): 38%
weight increment (mongrel male mice; mice, TCB, 1% ointment): 4.9 ± 0.5 g
Effect in percent (mongrel mice; 50 µg/kg): 105 ± 3,5%
Effect in percent (mongrel mice; 500 µg/kg): 113 ± 5,2%
Lifetime under hypoxic conditions (minutes) (mongrel mice; 50 µg/kg): 322,0 ± 10,9 minutes
Lifetime under hypoxic conditions (minutes) (mongrel mice; 500 µg/kg): 345,3 ± 15,9 minutes
Growth inhibition percent ([3]; compound in drinking water): 53%
Tumor volume (mm^3) ([3]; compound in drinking water from 24 hours after transplantation): 1249 ± 168** mm^3
Anaphylactic index (mongrel guinea-pigs [4]): 0.83*
Seizures in percent (mongrel guinea-pigs [4]): 13,3* percent

γ-L-glutamylhistamine [compound XLIV]
HDL-CS (mongrel male rats; blood): 47,3±1,1***^A
LDL-CS+ VLDL-CS (mongrel male rats; blood): 37,4±1,1***^A
Total CS (mongrel male rats; blood): 84,7±3,0**^A
Triglycerides (mongrel male rats; blood): 85,0±6,3***^A
Kcs (mongrel male rats; cholesterol index): 0,79±0,02***^A
blasttranformation reaction of human lymphocytes induced by PHA (Human lymphocytes): stimulating effect
Radioactivity, number of pulses for 20 seconds (Human lymphocytes; 10^-4 M/l, +PHA): 3276 ± 225 number of pulses for 20 seconds
Stimulation index (Human lymphocytes; 10^-4 M/l, +PHA): 10.9
Radioactivity, number of pulses for 20 seconds (Human lymphocytes; 10^-4 M/l, no mitogen): 301 ± 103 number of pulses for 20 seconds
Radioactivity, number of pulses for 20 seconds (Human lymphocytes; 10^-5 M/l, +PHA): 2999 ± 213 number of pulses for 20 seconds
Stimulation index (Human lymphocytes; 10^-5 M/l, +PHA): 23.2
Radioactivity, number of pulses for 20 seconds (Human lymphocytes; 10^-5 M/l, no mitogen): 132 ± 13 number of pulses for 20 seconds
Radioactivity, number of pulses for 20 seconds (Human lymphocytes; 10^-6 M/l, +PHA): 4414 ± 570 number of pulses for 20 seconds
Stimulation index (Human lymphocytes; 10^-6 M/l, +PHA): 29.6
Radioactivity, number of pulses for 20 seconds (Human lymphocytes; 10^-6 M/l, no mitogen): 150 ± 33 number of pulses for 20 seconds
Radioactivity, number of pulses for 20 seconds (Human lymphocytes; 10^-7 M/l, +PHA): 2960 ± 210 number of pulses for 20 seconds
Stimulation index (Human lymphocytes; 10^-7 M/l, +PHA): 9.9
Radioactivity, number of pulses for 20 seconds (Human lymphocytes; 10^-7 M/l, no mitogen): 300 ± 107 number of pulses for 20 seconds
Radioactivity, number of pulses for 20 seconds (Human lymphocytes; 10^-8 M/l, +PHA): 3830 ± 286 number of pulses for 20 seconds
Stimulation index (Human lymphocytes; 10^-8 M/l, +PHA): 14.7
Radioactivity, number of pulses for 20 seconds (Human lymphocytes; 10^-8 M/l, no mitogen): 261 ± 100 number of pulses for 20 seconds
